pIC50: −log10 of the molar value.
Key:
Assay in all cases: Enzyme activity test, mobility shift assay (Table 1)
Format in all cases: biochemical
[1] = molecular target: CDK9/Cyclin Tl (Homo sapiens (Human), UniProt P50750); conditions: 2 mM ATP; read-out: CDK9 kinase IC50
How it was run: (§1)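 Human CDK9/Cyclin T1 and CDK2/Cyclin E1 activity measured by mobility shift assay. Compounds tested as 10-point, 3-fold dilution series starting at 0.5 mM (diluted from 10 mM DMSO stock), in duplicate, with 0 min or 60 min compound–enzyme pre-incubation.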

[2] = molecular target: CDK2/Cyclin El (Homo sapiens (Human), UniProt P24941); conditions: 2 mM ATP; read-out: CDK2 kinase IC50
How it was run: as §1

[3] = molecular target: CDK7/Cyclin H/MAT1 kinase (Homo sapiens (Human), UniProt P50613); conditions: 2 mM ATP; pre-incubated 0 and 60 minutes
[4] = molecular target: CDK12 (aa686-1082)/Cyclin K (Homo sapiens (Human), UniProt Q9NYV4); conditions: 2 mM ATP; read-out: CDK12 kinase IC50
How it was run: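 Mobility shift kinase assay on CDK9/Cyclin T1 and CDK12 (aa686-1082)/Cyclin K. Ten-point 3-fold dilution series started from a 0.5 mM intermediate solution in DMSO, with compound–enzyme pre-incubation of 0 or 60 min, in duplicate. Staurosporine served as positive control.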

CDK7/Cyclin H/MAT1 kinase, sequence (P50613 whole entry, the tested form may be a part): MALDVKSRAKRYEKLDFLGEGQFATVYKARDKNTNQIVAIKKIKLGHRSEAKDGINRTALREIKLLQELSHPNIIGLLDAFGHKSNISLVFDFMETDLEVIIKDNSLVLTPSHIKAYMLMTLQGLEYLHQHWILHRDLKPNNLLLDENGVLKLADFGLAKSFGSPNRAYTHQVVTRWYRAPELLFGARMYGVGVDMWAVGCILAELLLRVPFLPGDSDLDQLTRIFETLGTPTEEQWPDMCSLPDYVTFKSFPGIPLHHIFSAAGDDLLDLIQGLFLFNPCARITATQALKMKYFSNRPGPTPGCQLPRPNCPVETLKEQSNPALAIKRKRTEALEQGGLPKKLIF
CDK7/Cyclin H/MAT1 kinase, sequence (P51946 whole entry partner, the tested form may be a part): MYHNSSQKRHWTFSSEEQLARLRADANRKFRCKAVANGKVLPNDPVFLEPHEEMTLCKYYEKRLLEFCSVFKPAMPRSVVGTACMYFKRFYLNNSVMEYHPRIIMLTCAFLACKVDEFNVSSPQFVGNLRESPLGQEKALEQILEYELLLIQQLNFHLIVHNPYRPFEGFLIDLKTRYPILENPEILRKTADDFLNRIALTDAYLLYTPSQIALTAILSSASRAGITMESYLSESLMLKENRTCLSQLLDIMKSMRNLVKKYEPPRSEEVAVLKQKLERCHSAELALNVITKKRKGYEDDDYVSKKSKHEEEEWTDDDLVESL
CDK7/Cyclin H/MAT1 kinase, sequence (P51948 whole entry partner, the tested form may be a part): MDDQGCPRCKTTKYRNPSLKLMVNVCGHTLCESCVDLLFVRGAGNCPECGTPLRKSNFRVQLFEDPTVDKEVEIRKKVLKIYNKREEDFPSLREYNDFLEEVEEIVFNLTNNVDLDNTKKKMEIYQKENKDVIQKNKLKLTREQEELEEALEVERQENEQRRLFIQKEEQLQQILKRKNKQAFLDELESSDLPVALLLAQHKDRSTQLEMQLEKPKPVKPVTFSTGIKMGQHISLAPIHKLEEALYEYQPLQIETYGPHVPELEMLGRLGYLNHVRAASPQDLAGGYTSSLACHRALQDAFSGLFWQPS
CDK12 (aa686-1082)/Cyclin K, sequence (Q9NYV4 686-1082): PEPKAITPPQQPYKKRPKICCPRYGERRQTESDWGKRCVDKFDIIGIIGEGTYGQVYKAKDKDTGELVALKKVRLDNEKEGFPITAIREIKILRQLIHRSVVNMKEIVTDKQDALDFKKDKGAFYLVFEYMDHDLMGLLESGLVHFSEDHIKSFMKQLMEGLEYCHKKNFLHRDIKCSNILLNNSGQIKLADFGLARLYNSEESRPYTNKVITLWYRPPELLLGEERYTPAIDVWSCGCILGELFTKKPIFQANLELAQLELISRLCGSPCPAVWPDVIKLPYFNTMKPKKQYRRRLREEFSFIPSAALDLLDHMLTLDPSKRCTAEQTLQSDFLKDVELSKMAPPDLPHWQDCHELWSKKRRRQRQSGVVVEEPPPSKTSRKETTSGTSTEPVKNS
CDK12 (aa686-1082)/Cyclin K, sequence (O75909 whole entry partner, the tested form may be a part): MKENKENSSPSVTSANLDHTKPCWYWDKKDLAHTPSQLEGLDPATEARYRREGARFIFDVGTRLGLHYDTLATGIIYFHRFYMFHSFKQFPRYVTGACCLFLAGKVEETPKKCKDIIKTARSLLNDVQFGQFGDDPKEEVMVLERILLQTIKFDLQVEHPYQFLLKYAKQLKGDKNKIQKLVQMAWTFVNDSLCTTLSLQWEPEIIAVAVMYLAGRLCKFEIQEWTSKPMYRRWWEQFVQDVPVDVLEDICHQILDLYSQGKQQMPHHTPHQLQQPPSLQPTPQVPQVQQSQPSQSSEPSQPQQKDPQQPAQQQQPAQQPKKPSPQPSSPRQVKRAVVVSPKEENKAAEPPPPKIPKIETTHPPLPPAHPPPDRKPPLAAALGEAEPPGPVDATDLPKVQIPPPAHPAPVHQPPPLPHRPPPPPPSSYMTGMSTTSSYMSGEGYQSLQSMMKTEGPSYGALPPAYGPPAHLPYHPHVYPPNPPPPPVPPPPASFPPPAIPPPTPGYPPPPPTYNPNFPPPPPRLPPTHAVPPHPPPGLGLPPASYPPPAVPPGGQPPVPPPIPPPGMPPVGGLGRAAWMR
CDK9/Cyclin Tl, sequence (P50750 whole entry): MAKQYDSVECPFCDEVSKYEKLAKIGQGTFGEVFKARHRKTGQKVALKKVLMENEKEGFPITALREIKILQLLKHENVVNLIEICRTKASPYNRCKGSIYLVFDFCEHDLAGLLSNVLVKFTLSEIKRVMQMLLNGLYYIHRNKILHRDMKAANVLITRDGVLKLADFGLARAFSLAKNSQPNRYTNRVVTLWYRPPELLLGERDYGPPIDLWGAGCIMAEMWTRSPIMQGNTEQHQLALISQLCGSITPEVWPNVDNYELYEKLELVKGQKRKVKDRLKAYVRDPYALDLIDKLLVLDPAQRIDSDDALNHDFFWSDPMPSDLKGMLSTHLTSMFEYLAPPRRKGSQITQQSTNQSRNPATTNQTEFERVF
CDK9/Cyclin Tl, sequence (O60563 whole entry partner): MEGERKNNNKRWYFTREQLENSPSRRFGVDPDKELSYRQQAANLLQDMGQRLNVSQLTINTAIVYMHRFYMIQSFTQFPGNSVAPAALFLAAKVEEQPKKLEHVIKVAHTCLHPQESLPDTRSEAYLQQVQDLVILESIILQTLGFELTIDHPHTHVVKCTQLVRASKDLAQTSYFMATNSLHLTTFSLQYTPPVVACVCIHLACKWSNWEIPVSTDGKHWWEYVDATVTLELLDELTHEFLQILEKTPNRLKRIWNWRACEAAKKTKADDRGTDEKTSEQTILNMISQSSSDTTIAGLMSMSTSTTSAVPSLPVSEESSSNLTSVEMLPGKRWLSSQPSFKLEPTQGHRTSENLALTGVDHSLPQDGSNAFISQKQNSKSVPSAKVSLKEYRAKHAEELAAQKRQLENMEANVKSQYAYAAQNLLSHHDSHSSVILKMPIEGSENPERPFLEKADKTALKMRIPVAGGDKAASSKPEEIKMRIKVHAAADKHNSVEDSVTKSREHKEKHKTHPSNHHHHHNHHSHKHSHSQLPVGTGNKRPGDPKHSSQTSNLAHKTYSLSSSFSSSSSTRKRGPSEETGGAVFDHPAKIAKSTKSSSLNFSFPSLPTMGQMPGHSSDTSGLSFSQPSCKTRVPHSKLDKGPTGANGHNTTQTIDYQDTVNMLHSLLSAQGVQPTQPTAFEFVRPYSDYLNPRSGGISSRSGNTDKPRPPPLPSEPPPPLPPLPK

Compound | pIC50 [1] | pIC50 [2] | pIC50 [3] | pIC50 [4]
COC(=O)Nc1ccc2c(-c3nc(N[C@H]4CCCNC4)ncc3C(F)(F)F)c[nH]c2c1C#N [Example T-27] | < 6.30 | < 6.30 | > 7.30 | < 6.30
COC(=O)Nc1ccc2c(-c3nc(N[C@H]4CCC(C)(C)NC4)ncc3C(F)(F)F)c[nH]c2c1C(F)(F)F [Example T-35] | < 6.30 | < 6.30 | > 7.30 | < 6.30
COC(=O)Nc1ccc2c(-c3nc(N[C@@H]4CCC[C@@H](N)C4)ncc3C(F)(F)F)c[nH]c2c1Br [Example T-23] | < 6.30 | < 6.30 | 6.30 to 7.30 | < 6.30
COC(=O)Nc1ccc2c(-c3nc(N[C@H]4CC[C@@H](C)NC4)ncc3C(F)(F)F)c[nH]c2c1C(F)(F)F [Example T-149] | < 6.30 | < 6.30 | 6.30 to 7.30 | < 6.30
COC(=O)Nc1ccc2c(-c3nc(N[C@H]4CCC(C)(C)NC4)ncc3C(F)(F)F)c[nH]c2c1C1CC(F)(F)C1 [Example T-106] | < 6.30 | < 6.30 | > 7.30 | < 6.30
CCOC(=O)Nc1ccc2c(-c3nc(N[C@H]4CCCNC4)ncc3C(F)(F)F)c[nH]c2c1C1CC1 [Example T-127] | < 6.30 | < 6.30 | > 7.30 | < 6.30
CCOC(=O)Nc1ccc2c(-c3nc(N[C@H]4CCC(C)(C)NC4)ncc3C(F)(F)F)c[nH]c2c1C(C)(F)F [Example T-153] | < 6.30 | < 6.30 | > 7.30 | < 6.30
COC(=O)N(C)c1ccc2c(-c3nc(N[C@H]4CCCNC4)ncc3C(F)(F)F)c[nH]c2c1C(F)(F)F [Example T-164] | < 6.30 | < 6.30 | > 7.30 | < 6.30
COC(=O)Nc1ccc2c(-c3nc(N[C@H]4CCC(C)(C)NC4)ncc3Cl)c[nH]c2c1OC(F)(F)F [Example T-96] | < 6.30 | < 6.30 | > 7.30 | < 6.30
COC(=O)Nc1ccc2c(-c3nc(N[C@@H]4[C@@H]5CNC[C@@H]54)ncc3C(F)(F)F)c[nH]c2c1Br [Example T-25] | < 6.30 | < 6.30 | 6.30 to 7.30 | < 6.30
COC(=O)Nc1ccc2c(-c3nc(N[C@H]4CCC[C@@H]4N)ncc3C(F)(F)F)c[nH]c2c1Br [Example T-67] | < 6.30 | < 6.30 | > 7.30 | < 6.30
COC(=O)Nc1ccc2c(-c3nc(N[C@H]4CCC5(CC5)NC4)ncc3C(F)(F)F)c[nH]c2c1C(F)(F)F [Example T-100] | < 6.30 | < 6.30 | > 7.30 | < 6.30
O=C(Nc1ccc2c(-c3nc(N[C@H]4CCCNC4)ncc3C(F)(F)F)c[nH]c2c1)C1CC1 [Example T-11] | < 6.30 | < 6.30 | > 7.30 | < 6.30

The remaining lines, values ahead:

pIC50 [1] | pIC50 [2] | pIC50 [3] | pIC50 [4] | Compound
< 6.30 | < 6.30 | > 7.30 | < 6.30 | COC(=O)Nc1ccc2c(-c3nc(N[C@H]4CCCNC4)ncc3C(F)(F)F)c[nH]c2c1OCC(F)(F)F [Example T-139]
< 6.30 | < 6.30 | 6.30 to 7.30 | < 6.30 | COC(=O)Nc1ccc2c(-c3nc(NC4C5CCNC54)ncc3C(F)(F)F)c[nH]c2c1Br (centres unmarked) [Example T-26]
< 6.30 | < 6.30 | > 7.30 | < 6.30 | COC(=O)Nc1ccc2c(-c3nc(N[C@H]4CCCNC4)ncc3C(F)(F)F)c[nH]c2c1C1COC1 [Example T-84]
< 6.30 | < 6.30 | > 7.30 | < 6.30 | CC1(C)COC(Nc2ccc3c(-c4nc(N[C@H]5CCCNC5)ncc4C(F)(F)F)c[nH]c3c2Br)=N1 [Example T-07]
< 6.30 | < 6.30 | > 7.30 | < 6.30 | COC(=O)Nc1ccc2c(-c3nc(N[C@H]4CCCNC4)ncc3C(F)(F)F)c[nH]c2c1SC(C)C [Example T-66]
< 6.30 | < 6.30 | > 7.30 | < 6.30 | COC(=O)Nc1ccc2c(-c3nc(N[C@H]4CCC(C)(C)NC4)ncc3C(F)(F)F)c[nH]c2c1C(F)F [Example T-107]
< 6.30 | < 6.30 | 6.30 to 7.30 | < 6.30 | COC(=O)Nc1ccc2c(-c3nc(N[C@H]4CCC[C@@H](N)C4)ncc3C(F)(F)F)c[nH]c2c1Br [Example T-21]
< 6.30 | < 6.30 | > 7.30 | < 6.30 | COC(=O)Nc1ccc2c(-c3nc(N[C@H]4CCC(C)(C)NC4)ncc3C(F)(F)F)c[nH]c2c1C(C)=O [Example T-134]
< 6.30 | < 6.30 | > 7.30 | < 6.30 | COC(=O)Nc1ccc2c(-c3nc(N[C@H]4CCC(C)(C)NC4)ncc3C(F)(F)F)c[nH]c2c1S(=O)(=O)C(C)C [Example T-64]
< 6.30 | < 6.30 | > 7.30 | < 6.30 | COC(=O)N(C)c1ccc2c(-c3nc(N[C@H]4CCCNC4)ncc3C(F)(F)F)c[nH]c2c1Cl [Example T-162]
< 6.30 | < 6.30 | > 7.30 | < 6.30 | O=C1OCCCN1c1ccc2c(-c3nc(N[C@H]4CCCNC4)ncc3C(F)(F)F)c[nH]c2c1Br [Example T-06]
< 6.30 | < 6.30 | > 7.30 | < 6.30 | COC(=O)Nc1ccc2c(-c3nc(N[C@H]4CCC(C)(C)NC4)ncc3C(F)(F)F)c[nH]c2c1C1CC1(F)F (some centres unmarked) [Example T-105]
< 6.30 | < 6.30 | > 7.30 | < 6.30 | O=C1CCCN1c1ccc2c(-c3nc(N[C@H]4CCCNC4)ncc3C(F)(F)F)c[nH]c2c1Br [Example T-04]

From US20230295130A1, “COMPOUND USEFUL AS CDK7 KINASE INHIBITOR AND USE THEREOF” (TYK MEDICINES, INC., priority 2020, published 2023)
